Laboratory results reported in patent publication US11311625B2, “Peptide-based multiple-drug delivery vehicle” (priority 2015, dated 2022).
Where two headings read alike, the source gives them in different places.

Experiments:
[1] = tested on: H1299 human non-small cell lung carcinoma cells; assay: XTT growth inhibition assay, H1299; type: cell-based; details: 10 μM, incubation of 72 h
Description: (§1) The cytotoxicity of the peptide-drug conjugates was determined by measuring the mitochondrial enzyme activity, using a commercial XTT assay kit. All samples contained DMSO at final concentration <0.05%. Cells were cultured in micro wells at 2-4×10^4 cells/ml and incubated for 24 h or 72 h. After the first incubation period the cultures were washed and then given fresh medium containing different concentrations of the tested substances. At the end of the second incubation, XTT reagent was added and the cells were re-incubated for additional 2-4 h. During that time the absorbencies in the wells were measured with a TECAN Infinite M200 plate reader at both 480 and 680 nm. The difference between these measurements was used for calculating the % Growth Inhibition (GI) in test wells compared to two controls: cells that were exposed to the medium and solvent, and those that were exposed to a solvent-free medium. All the tests were done in quadruplicates. Each experiment was conducted twice.
(§2) In order to compare the cytotoxic effects of the conjugates relative to the free drugs, the in vitro cytotoxic effect of the drug bioconjugates 1a-e was determined on SSTR2 overexpressed HCT 116 human colorectal carcinoma, H1299 human non-small cell lung carcinoma and TRAMP C2 human prostate cancer cell lines. The SSTR2 low-expressed HEK-293 (Human Embryonic Kidney 293) cell line was used as a negative control. The study was elaborated over a concentration range of 1-10 μM.
FIGS. 13A-13D present the results of the XTT growth inhibition assay conducted for conjugates 1a-e. […] After the treatment, growth inhibition was measured using the XTT assay: The culture medium was replaced by a new one, and then the XTT reagent was added. The wells were incubated for 2-4 hrs. after which the optical density (OD) was measured at 480 and 680 nm. Percentage of growth inhibition for each compound was calculated by comparison of the treated culture versus a control culture (free of any compound). The result shown for each concentration point represents the mean±standard error calculated from two different experiments. […]

[2] = Chemo-stability and drug release of conjugates 1a-e in buffers at pH 2, 5 and 7.4 (LC-MS); type: physicochemical; details: for half-life at 0.4 mg/ml: buffer
Description: Incubation procedure: Aqueous stability was determined at pH 2.0 (phosphate buffer), 5.0 (citrate buffer) and 7.4 (PBS buffer). 100 μl of the stock solutions were diluted to 2.5 ml with the desired buffer and then incubated at 37° C. During the incubation period (up to 200 hrs.), aliquots were removed at different time intervals, filtered and analyzed by LC-MS.
Chemo-stability. The chemo-stability tests of the conjugates were performed at three different pH values; a physiological pH of 7.4, the slightly acidic pH 5, mimicking the microenvironment in tumors, and the more acidic pH 2.
FIGS. 11A-11J present the results of the chemo-stability and drug release profiles assays, conducted for conjugates 1a-e at pH 2, 5 and 7.4. Degradation of 1a (FIG. 11A), 1b (FIG. 11C), 1c (FIG. 11E), 1d (FIG. 11G), 1e FIG. 11 (FIG. 11I), and the release of the corresponding drugs: CLB (FIG. 11B), CPT (FIG. 11D), AM (FIG. 11F), ABT-751 (FIG. 11H), and COMB (FIG. 11J). Stock solutions were prepared by dissolving 5 mg of the measured conjugate in 0.5 ml DMSO. 100 μl of the stock solution were diluted to 2.5 ml with the relevant buffer and then incubated at 37° C. Along the incubation period, aliquots were taken at the desired time points and analyzed by LC-MS.

[3] = Bio-stability and drug release of conjugates 1a-e in murine liver homogenate (LH); type: in vitro ADME, mouse
Description: (§3) Preparation of liver homogenate: Mice were sacrificed by CO2 inhalation euthanasia. The livers were removed, minced, washed three times in cold PBS buffer and homogenized in Tris-HCl buffer, pH 7.4 (wt/3 vol.) by dozen strokes in a Potter-Elvehjem glass tissue grinder. The tissue homogenate was centrifuged at 4° C., 14000 rpm, 20 min. The supernatant was carefully collected (liver homogenate) and used immediately or else stored in liquid nitrogen.
Incubation procedure: Incubations were conducted in a 37° C. incubator with 2 ml homogenate (equivalent to 6 mg total protein of mouse liver homogenate) per incubation tube. The samples were prepared by adding 50 μl of stock solution to the homogenate (homogenate mixture) at the beginning of the incubation period. Aliquots of the homogenate mixture were removed after 10, 30, 60, 90, 120 and 180 min and then immediately quenched with 2.5 volumes of ethanol. The samples were centrifuged at 14000 rpm for 15 min. Supernatants were collected, filtered and analyzed by LC-MS.
FIGS. 12A-12E present the results of the bio-stability and drug release profiles assays conducted for conjugates 1a-e in LH. […] Stock solutions were prepared by dissolving 5 mg of the measured conjugate in 0.5 ml DMSO. 50 μl of the stock solution were diluted with 2 ml of fresh mouse liver homogenate and then the mixture was incubated at 37° C. Aliquots were collected at 10, 30, 60, 90 and 120 min, mixed with 2.5 volumes of ethanol and centrifuged (14,000 rpm, 15 min). The supernatants were collected, filtered and analyzed by LC-MS

[4] = tested on: HCT 116, H1299, TRAMP C2 and HEK cell lines; assay: XTT growth inhibition assay, statements over all tested cell lines; type: cell-based, human; details: for IC50 values: tested cell lines including HEK; for cytotoxicity throughout the study: 1-10 μM, 24 and 72 h
Description: as §1, §2
FIGS. 13A-13D present the results of the XTT growth inhibition assay conducted for conjugates 1a-e. Growth inhibition effect of drug-conjugates versus free drugs was studied on three cell lines with an over-expression of SSTR2 (FIG. 13A. HCT 116; FIG. 13B. H1299; FIG. 13C. TRAMP C2) against the SSTR2 low expression cell line (FIG. 13D) HEK as negative control. All the cell lines were seeded and allowed to adhere in the wells, after which they were treated with the different compounds in increasing concentrations for 24 and 72 hr. After the treatment, growth inhibition was measured using the XTT assay: The culture medium was replaced by a new one, and then the XTT reagent was added. The wells were incubated for 2-4 hrs. after which the optical density (OD) was measured at 480 and 680 nm. Percentage of growth inhibition for each compound was calculated by comparison of the treated culture versus a control culture (free of any compound). The result shown for each concentration point represents the mean±standard error calculated from two different experiments. In each experiment the compounds were tested in quadruplicates.

[5] = Chemo-stability and drug release of 9a and CLB in buffers at pH 2, 5 and 7.4 (LC-MS); type: physicochemical
Description: Stock solutions chemo-stability studies were prepared by dissolving 5 mg of the tested compound in 5000 μl of DMSO.
Incubation procedure: Aqueous stability was determined at pH 2, 5 and 7.4. Aliquots (100 μl) of stock solution were diluted to a total of 2.5 mL with the desired buffer and then incubated at 37° C. During the incubation period (up to 160 h) 250 μL portions were drawn at different time intervals, filtered and analyzed by LC-MS.
Peptidyl delivery systems loaded with anticancer drugs are expected to reach their site of action with minimal degradation. The PDS should be stable enough to be absorbed by cancer cells and only then deliver its toxic cargo. Chemo-stability and bio-stability studies may give us a background check for the endurance of our compact peptidyl DDS under the different conditions it is expected to encounter in a potential animal test. To that end, samples of 9a were incubated at pH 2, mimicking stomach conditions, at pH 5 mimicking the microenvironment in tumors, and at physiological pH 7.4, all at 37° C. Aliquots from the stock solutions were extracted at different time intervals and analyzed by LC-MS following the decrease in concentration of 9a (i.e., chemical degradation) and the formation of the dihydroxy derivative 11. In addition, the direct release of the different drugs was also followed based on the increase in the concentration of CLB, AZA and CAMP over time. In this analysis samples of 9a, 11, CLB, AZA and CAMP were used as references. Overall, the HPLC trace presents a very complex mixture of metabolites which could not be exhaustively characterized. Scheme 9 below presented the molecular structure 11.

[6] = Bio-stability of 9a in murine liver homogenate (LH); type: in vitro ADME, mouse
Description: as §3, with “the LH and assay:” for “liver homogenate:”, “Tris-HCl,” for “Tris-HCl buffer,”, “7.4 buffer” for “7.4”, “(LH)” for “(liver homogenate)”, “nitrogen. The concentration of protein was measured using the BCA protein assay with bovine serum albumin as a standard.” for “nitrogen.”
Assay incubation procedure: Incubations were conducted in an incubator oven set at 37° C. Each incubation tube contained 2 mL homogenate samples (equivalent to 6 mg total protein of mouse LH). The samples were prepared by adding 50 μL of stock solution to the LH at the beginning of the incubation period. Aliquots (100 μL) of the LH mixture were removed after 10, 30, 60, 90, 120, and 180 min. immediately quenched with 2.5 volumes of ethanol, and centrifuged at 14000 rpm for 15 min. The supernatants were collected, filtered and analyzed by LC-MS.
In order to get a biologically relevant picture of the release sequence of the different drugs, the bio-stability of 9a in murine liver homogenate (LH) was studied. Examination of the degradation rate of 9a, accompanied by cleavage of free drugs, was carried out following the LC-MS trace at different time intervals using premade authentic samples as reference signals.

[7] = tested on: TRAMP C2 prostate cancer cell lines; assay: XTT growth inhibition assay, TRAMP C2; type: cell-based, human; details: compared with corresponding free drugs
Description: as §1, with “The difference between these measurements was used for calculating the % Growth Inhibition (GI) in test wells compared to two controls: cells that were exposed to the medium and solvent, and those that were exposed to a solvent-free medium. All the tests were done in quadruplicates. Each experiment was conducted twice.” left out
In order to compare the cytotoxic effects of the conjugates relative to the free drugs, the in vitro cytotoxic effect of the drug bioconjugates 1a-e was determined on SSTR2 overexpressed HCT 116 human colorectal carcinoma, H1299 human non-small cell lung carcinoma and TRAMP C2 human prostate cancer cell lines. […]
FIGS. 13A-13D present the results of the XTT growth inhibition assay conducted for conjugates 1a-e. […] After the treatment, growth inhibition was measured using the XTT assay: The culture medium was replaced by a new one, and then the XTT reagent was added. The wells were incubated for 2-4 hrs. after which the optical density (OD) was measured at 480 and 680 nm. […]

[8] = mouse, tissue homogenate, pH 7.4, 37° C., read-out: degradation t1/2 in liver homogenate

SMILES: COc1ccc(S(=O)(=O)Nc2cccnc2Nc2ccc(O)cc2)cc1 [ABT-751, reference compound]
- cytotoxic effect on H1299 [1]: considerable cytotoxic effect
- degradation of free drug ([2]; buffers, 37° C.): certain degradation behavior
- stability of free drug in liver homogenate ([3]; measured time period): rapid degradation
- IC50 values [4]: low μM range

SMILES: O=C(O)CCCc1ccc(N(CCCl)CCCl)cc1 [CLB, Chlorambucil, reference compound]
- degradation of pure CLB ([5]; all tested pH values (2, 5, 7.4), 37° C.): considerable degradation
- relative stability of CLB ([5]; pH 5): least stable
- cytotoxicity throughout the study [4]: poorly active

SMILES: COc1ccc(/C=C\c2cc(OC)c(OC)c(OC)c2)cc1O [COMB, combretastatin A4]
- IC50 values [4]: low μM range

SMILES: CN(C)CCN1C(=O)c2cccc3cc(N)cc(c23)C1=O [amonafide, reference compound]
- stability of free drug ([2]; acidic pH 2): relatively low stability
- cytotoxicity throughout the study [4]: poorly active

SMILES: CC[C@]1(OC(=O)NCCCC[C@H](NC(=O)CCCc2ccc(N(CCO)CCO)cc2)C(=O)NCCCC[C@H](NC(=O)Oc2c(OC)cc([C@H]3c4[nH]c5ccccc5c4CC4COC(=O)N43)cc2OC)C(=O)O)C(=O)OCc2c1cc1n(c2=O)Cc2cc3ccccc3nc2-1 (some centres unmarked) [compound 11]
- time after which no traces of 11 are left ([5]; all three pH cases): 40 h
- time at which formation of 11 from 9a reaches its maximum ([5]; all three pH cases): 5 h

SMILES: COc1cc([C@@H]2c3[nH]c4ccccc4c3C[C@H]3COC(=O)N32)cc(OC)c1OC(=O)N[C@@H](C)C(=O)O [compound 12]
- time the carbamate link remains intact in LH [6]: at least 120 min

SMILES: C[C@@H](O)[C@@H]1NC(=O)[C@H](CCCCN)NC(=O)[C@@H](Cc2c[nH]c3ccccc23)NC(=O)[C@H](Cc2c[nH]c3ccccc23)NC(=O)[C@H](Cc2ccccc2)NC(=O)[C@@H](NC(=O)[C@@H](Cc2ccccc2)NC(=O)CCCNC(=O)CCCc2ccc(N(CCCl)CCCl)cc2)CSSCCN(CC(N)=O)C(=O)[C@H](Cc2ccccc2)NC1=O [conjugate 1a]
- degradation of conjugate ([2]; all tested pH values (pH 2, 5, 7.4), 37° C.): considerable degradation
- CLB release from conjugate ([2]; pH 2, 5 and 7.4, 37° C.): observed only at acidic pH 2
- half-life ([2]; pH 2, 37° C., read-out: CLB release t1/2 (converted)): 51 h
- half-life ([3]; mouse, tissue homogenate, 37° C., read-out: degradation t1/2 in liver homogenate): 0.95 h
- cytotoxicity throughout the study [4]: poorly active

SMILES: CC[C@@]1(OC(=O)NCCCC(=O)N[C@H](Cc2ccccc2)C(=O)N[C@H]2CSSCCN(CC(N)=O)C(=O)[C@H](Cc3ccccc3)NC(=O)[C@H]([C@@H](C)O)NC(=O)[C@H](CCCCN)NC(=O)[C@@H](Cc3c[nH]c4ccccc34)NC(=O)[C@H](Cc3c[nH]c4ccccc34)NC(=O)[C@H](Cc3ccccc3)NC2=O)C(=O)OCc2c1cc1n(c2=O)Cc2cc3ccccc3nc2-1 [conjugate 1b]
- cytotoxic effect on H1299 [1]: most active
- half-life [3, 8]: 0.617 h
- cytotoxicity throughout the study [4]: targeted but cell selective cytotoxicity

SMILES: C[C@@H](O)[C@@H]1NC(=O)[C@H](CCCCN)NC(=O)[C@@H](Cc2c[nH]c3ccccc23)NC(=O)[C@H](Cc2c[nH]c3ccccc23)NC(=O)[C@H](Cc2ccccc2)NC(=O)[C@@H](NC(=O)[C@@H](Cc2ccccc2)NC(=O)CCCNC(=O)CCCC(=O)Nc2cc3c4c(cccc4c2)C(=O)N(CCN(C)C)C3=O)CSSCCN(CC(N)=O)C(=O)[C@H](Cc2ccccc2)NC1=O [conjugate 1c]
- half-life at 0.4 mg/ml ([2]; pH 2): 48 h
- half-life at 0.4 mg/ml ([2]; pH 5): 28 h
- half-life at 0.4 mg/ml ([2]; pH 7.4): 103 h

SMILES: COc1ccc(/C=C\c2cc(OC)c(OC)c(OC)c2)cc1OC(=O)NCCCC(=O)N[C@H](Cc1ccccc1)C(=O)N[C@H]1CSSCCN(CC(N)=O)C(=O)[C@H](Cc2ccccc2)NC(=O)[C@H]([C@@H](C)O)NC(=O)[C@H](CCCCN)NC(=O)[C@@H](Cc2c[nH]c3ccccc23)NC(=O)[C@H](Cc2c[nH]c3ccccc23)NC(=O)[C@H](Cc2ccccc2)NC1=O [conjugate 1e]
- cytotoxic effect on TRAMP C2 [7]: most potent targeted therapeutic effect
- degradation of conjugate in acidic media ([2]; acidic media, especially pH 2): degrades rapidly
- half-life at 0.4 mg/ml ([2]; pH 2, 37° C., read-out: degradation t1/2): 0.0667 h
- half-life at 0.244 mg/ml [3, 8]: 0.433 h
- cytotoxicity throughout the study [4]: targeted but cell selective cytotoxicity
